Among the test systems are OVCAR-8 ovarian; HCC-2998 colon; MCF7 breast; T-47D breast; SK-OV-3 ovarian; KM12 colon; COLO 205 colon; UO-31 renal; NCI-H522 lung; RPMI-8226 leukemia.
Common to all, as to test: NCI-60 cell line screen, 48 h

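A five-concentration, 48-hour dose response in 96-well plates underlies each endpoint, interpolated linearly between surrounding concentrations. GI50 is the concentration that inhibits growth by half. The concentration for full growth arrest is given as TGI.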

For `COc1cc(C2C3=C(COC3=O)Nc3cc4c(cc32)OCO4)cc2c1OCO2` (stereo not drawn), the GI50 was 0.102 µM with OVCAR-8 ovarian; 0.109 µM in the assay on HCC-2998 colon; 0.0393 µM in the assay on MCF7 breast; over 100 µM with T-47D breast; 0.0706 µM in the assay on SK-OV-3 ovarian; 0.0355 µM in the assay with KM12 colon. Also, the GI50 with COLO 205 colon is 0.0735 µM; with UO-31 renal, 0.332 µM; in the assay with NCI-H522 lung, 0.0219 µM; in the assay on RPMI-8226 leukemia, 0.068 µM. Moreover, the TGI with OVCAR-8 ovarian was over 100 µM; in the assay with MCF7 breast, over 100 µM; in the assay with T-47D breast it was over 100 µM; with KM12 colon it was 1.92 µM; with COLO 205 colon it was 0.172 µM; with UO-31 renal it was over 100 µM. Besides, the figures for the TGI in the assay with NCI-H522 lung and in the assay with RPMI-8226 leukemia were 0.0665 µM and over 100 µM, respectively.
As for `C#CC(=O)OCC#CCOC(=O)C#C`, the TGI in the assay on OVCAR-8 ovarian is 96 µM; in the assay with HCC-2998 colon, 39.6 µM; with MCF7 breast, 44.2 µM; in the assay on T-47D breast it was 60.2 µM; with SK-OV-3 ovarian, over 100 µM; in the assay on KM12 colon, 44 µM. Also, the TGI was 32.4 µM with COLO 205 colon, 23.1 µM with UO-31 renal, 9.81 µM in the assay on NCI-H522 lung and 34.3 µM in the assay with RPMI-8226 leukemia.
Regarding `COc1ccc(C(=O)OC2C(OC3C(O)COC(O[C@H]4C[C@H]5[C@@H]6CC=C7C[C@@H](O)CC[C@]7(C)[C@H]6CC[C@]5(C)[C@H]4[C@H](C)C(=O)CCC(C)C)C3OC(C)=O)OCC(O)C2O)cc1` (stereo partly drawn), the GI50 in the assay on OVCAR-8 ovarian is 1.02 µM; with HCC-2998 colon, 0.216 µM; in the assay on MCF7 breast, under 0.003 µM; in the assay with T-47D breast it was under 0.003 µM; in the assay with SK-OV-3 ovarian, under 0.003 µM; with KM12 colon it was 0.00399 µM. In addition, the GI50 in the assay with COLO 205 colon, in the assay on UO-31 renal, in the assay with NCI-H522 lung and with RPMI-8226 leukemia was under 0.003 µM throughout. The TGI in the assay on OVCAR-8 ovarian came to 30 µM; in the assay on HCC-2998 colon, 12.7 µM; in the assay on MCF7 breast it was 0.532 µM; in the assay on T-47D breast, 1.13 µM; in the assay on SK-OV-3 ovarian, 0.191 µM; in the assay with KM12 colon, 4.48 µM. For the same molecule, the TGI was 0.0194 µM in the assay on COLO 205 colon, 0.0056 µM in the assay on UO-31 renal, 0.0173 µM with NCI-H522 lung and under 0.003 µM with RPMI-8226 leukemia.
On to `CCN(CC)c1ccc(/C=C/C=C(/C#N)C(N)=S)cc1`, for which the GI50 in the assay with OVCAR-8 ovarian was 8.07 µM; with HCC-2998 colon, 6.46 µM; in the assay with MCF7 breast, 14.5 µM; in the assay with T-47D breast it was 2.96 µM; with SK-OV-3 ovarian it was over 100 µM; in the assay on KM12 colon it was 9.6 µM. In addition, the GI50 with COLO 205 colon was 7.13 µM; in the assay with UO-31 renal, 4.39 µM; in the assay on NCI-H522 lung, 8.54 µM; in the assay on RPMI-8226 leukemia it was 2.14 µM. In addition, the TGI with OVCAR-8 ovarian, in the assay with HCC-2998 colon, with MCF7 breast, in the assay on T-47D breast, with SK-OV-3 ovarian and in the assay on KM12 colon was over 100 µM each time. The TGI was over 100 µM with COLO 205 colon, over 100 µM in the assay on UO-31 renal, 47.8 µM in the assay with NCI-H522 lung and 7.88 µM in the assay with RPMI-8226 leukemia.
For the molecule `COc1cc2c(cc1O)C(c1cc(O)c(O)c(OC)c1)C(O)(C(=O)O)C(CO)C2O` (stereo not drawn), the TGI with OVCAR-8 ovarian was over 100 µM; with HCC-2998 colon, over 100 µM; with MCF7 breast, 42.5 µM; with T-47D breast it was over 100 µM; with SK-OV-3 ovarian, over 100 µM; in the assay on KM12 colon, over 100 µM. Moreover, the TGI in the assay on COLO 205 colon, in the assay on UO-31 renal, with NCI-H522 lung and in the assay with RPMI-8226 leukemia was over 100 µM each time.
Turning to `Oc1ccccc1C=Nc1ccccc1N=Cc1ccccc1O.[Cu+2]`, the GI50 with OVCAR-8 ovarian is 2.48 µM; with HCC-2998 colon it was 7.95 µM; with MCF7 breast it was 2.34 µM; with T-47D breast, 1.68 µM; with SK-OV-3 ovarian, 5.23 µM; in the assay on KM12 colon, 3.5 µM. The GI50 in the assay on COLO 205 colon is 3.45 µM; in the assay on UO-31 renal it was 3 µM; in the assay with NCI-H522 lung, 2.55 µM; in the assay with RPMI-8226 leukemia it was 2.09 µM. The TGI was 8.44 µM in the assay with OVCAR-8 ovarian; 20.9 µM in the assay on HCC-2998 colon; 14.1 µM with MCF7 breast; 5.4 µM in the assay with T-47D breast; 18.3 µM in the assay with SK-OV-3 ovarian; 15 µM in the assay on KM12 colon. Also, the TGI was 14.5 µM in the assay with COLO 205 colon, 15.6 µM with UO-31 renal, 12.3 µM in the assay on NCI-H522 lung and 40.8 µM in the assay with RPMI-8226 leukemia.
With `NC(CO)C(=O)NCC(=O)O` (stereo not drawn), the TGI in the assay with OVCAR-8 ovarian, in the assay on HCC-2998 colon, with MCF7 breast, with T-47D breast, in the assay with SK-OV-3 ovarian and in the assay on KM12 colon was over 100 µM each time. For the same molecule, the TGI in the assay with COLO 205 colon, in the assay with UO-31 renal, in the assay on NCI-H522 lung and in the assay with RPMI-8226 leukemia was over 100 µM each time.
As to `CCN(Cc1cccc(F)c1F)c1ccc(CO)c(Cl)c1`, the GI50 is 14.2 µM with OVCAR-8 ovarian; 5.09 µM in the assay on HCC-2998 colon; 0.157 µM in the assay on MCF7 breast; 0.07 µM in the assay on T-47D breast; 8.3 µM in the assay on SK-OV-3 ovarian; 15.8 µM in the assay on KM12 colon. Also, the GI50 in the assay on COLO 205 colon is 2.47 µM; with UO-31 renal it was 2.35 µM; with NCI-H522 lung it was 14.1 µM; in the assay with RPMI-8226 leukemia it was 2.32 µM. In addition, the TGI in the assay with OVCAR-8 ovarian was determined as 48.3 µM; with HCC-2998 colon, 24.6 µM; with MCF7 breast, 12.6 µM; with T-47D breast, 0.414 µM; with SK-OV-3 ovarian, 27.4 µM; with KM12 colon it was 31.6 µM. The TGI with COLO 205 colon is 7.59 µM; with UO-31 renal it was 32.1 µM; in the assay with NCI-H522 lung it was 31.2 µM; in the assay on RPMI-8226 leukemia, 39.7 µM.
`Cc1cn2c(/C=N/N=C(N)N)c(-c3ccsc3)nc2s1`: the GI50 with OVCAR-8 ovarian is 16.2 µM; in the assay with HCC-2998 colon, 2.34 µM; with MCF7 breast, 3.43 µM; in the assay with T-47D breast, 2.7 µM; in the assay on SK-OV-3 ovarian, 10.6 µM; in the assay on KM12 colon it was 6.6 µM. For the same molecule, the GI50 with COLO 205 colon was 3.18 µM; in the assay with UO-31 renal, 25.2 µM; with NCI-H522 lung it was 28.4 µM; in the assay on RPMI-8226 leukemia, 3.69 µM. In addition, the TGI in the assay with OVCAR-8 ovarian was found to be 34.4 µM; in the assay with HCC-2998 colon, 5.33 µM; in the assay on MCF7 breast, 14.8 µM; in the assay with T-47D breast it was 7.86 µM; with SK-OV-3 ovarian, 25.6 µM; in the assay with KM12 colon, 29.9 µM. Moreover, the TGI in the assay with COLO 205 colon was 15 µM; in the assay with UO-31 renal, over 100 µM; in the assay on NCI-H522 lung it was over 100 µM; in the assay with RPMI-8226 leukemia it was 16 µM.
